Data on three compounds can be found in ChEMBL document CHEMBL5113415, “Synthesis of 10,10'-bis(trifluoromethyl) marinopyrrole A derivatives and evaluation of their antiviral activities in vitro” (Eur J Med Chem, 2022).

SMILES strings stand for the structures.

A word on the IC50: it is the concentration needed to halve the response being measured. As usually defined, the CC50 is the concentration at which the toxic effect on the cells reaches its halfway point. Lower therefore signals harm at low concentration.

In one series the test system is Dengue virus. Put plainly: Antiviral activity against DENV-NGC-1 infected in […] incubated for 7 days by CellTiter 96 luminescent cell viability assay. Particulars: NGC-1, BHK, 168 h. The format is functional, organism-based.
`O=C(c1ccc(C(F)(F)F)cc1O)c1[nH]c(Cl)c(Cl)c1-n1c(C(=O)c2ccc(C(F)(F)F)cc2O)cc(Cl)c1SCCO`: the half-inhibitory concentration (IC50) was determined as 150 nM.
For `O=C(c1ccc(C(F)(F)F)cc1O)c1[nH]c(Cl)c(Cl)c1-n1c(C(=O)c2ccc(C(F)(F)F)cc2O)cc(Cl)c1SCCCO`, the IC50 was found to be 230 nM.

For another series, the system named is Zika virus. Put plainly: Antiviral activity against ZIKV-SMGC-1 infected in […] incubated for 7 days by CellTiter 96 luminescent cell viability assay. It counts as functional, organism-based. Particulars: SMGC-1, BHK, 168 h.
As to `O=C(c1ccc(C(F)(F)F)cc1O)c1[nH]c(Cl)c(Cl)c1-n1c(C(=O)c2ccc(C(F)(F)F)cc2O)cc(Cl)c1SCCO`, inhibition was half-maximal at 70 nM (IC50).
`O=C(c1ccc(C(F)(F)F)cc1O)c1[nH]c(Cl)c(Cl)c1-n1c(C(=O)c2ccc(C(F)(F)F)cc2O)cc(Cl)c1SCCCO`: the half-maximal inhibitory concentration (IC50) is 100 nM.

Tested on in another series: not listed separately
In words: Cytotoxicity against […] infected with ZIKV-SMGC-1 incubated for 7 days by CellTiter 96 luminescent cell viability assay. The format is toxicity, cell-based. Particulars: time 7 day.
`O=C(c1ccc(C(F)(F)F)cc1O)c1[nH]c(Cl)c(Cl)c1-n1c(C(=O)c2ccc(C(F)(F)F)cc2O)cc(Cl)c1SCCO`: the CC50 at 168 h worked out at 1420 nM.

Tested on in another series: not listed separately
Put plainly: Cytotoxicity against […] infected with DENV-NGC-1 incubated for 7 days by CellTiter 96 luminescent cell viability assay. The format is toxicity, cell-based. Particulars: time 7 day.
On to `O=C(c1ccc(C(F)(F)F)cc1O)c1[nH]c(Cl)c(Cl)c1-n1c(C(=O)c2ccc(C(F)(F)F)cc2O)cc(Cl)c1SCCO`, for which it took 500 nM to reach half-maximal cytotoxicity (CC50 at 168 h).
With `O=C(c1ccc(C(F)(F)F)cc1O)c1[nH]c(Cl)c(Cl)c1-n1c(C(=O)c2ccc(C(F)(F)F)cc2O)cc(Cl)c1SCCCO`, it took 1420 nM to reach half-maximal cytotoxicity (CC50 at 168 h).

A further series concerns Japanese encephalitis virus. Put plainly: Antiviral activity against JEV-SA14 infected in […] incubated for 7 days by CellTiter 96 luminescent cell viability assay. The format is functional, organism-based. Particulars: 168 h.
With `O=C(c1ccc(C(F)(F)F)cc1O)c1[nH]c(Cl)c(Cl)c1-n1c(C(=O)c2ccc(C(F)(F)F)cc2O)cc(Cl)c1SCCO`, 680 nM corresponded to half-maximal inhibition (IC50).
The compound `O=C(c1ccc(C(F)(F)F)cc1O)c1[nH]c(Cl)c(Cl)c1-n1c(C(=O)c2ccc(C(F)(F)F)cc2O)cc(Cl)c1Sc1ccccn1` displayed an IC50 of 210 nM.
As for `O=C(c1ccc(C(F)(F)F)cc1O)c1[nH]c(Cl)c(Cl)c1-n1c(C(=O)c2ccc(C(F)(F)F)cc2O)cc(Cl)c1SCCCO`, the 50% inhibitory concentration (IC50) was determined as 230 nM.

For another series, the system named is Yellow fever virus. Put plainly: Antiviral activity against YFV-17D infected in […] incubated for 7 days by CellTiter 96 luminescent cell viability assay. It counts as functional, organism-based. To be noted: 168 h.
`O=C(c1ccc(C(F)(F)F)cc1O)c1[nH]c(Cl)c(Cl)c1-n1c(C(=O)c2ccc(C(F)(F)F)cc2O)cc(Cl)c1SCCO` showed an IC50 of 600 nM.
As for `O=C(c1ccc(C(F)(F)F)cc1O)c1[nH]c(Cl)c(Cl)c1-n1c(C(=O)c2ccc(C(F)(F)F)cc2O)cc(Cl)c1Sc1ccccn1`, the half-inhibitory concentration (IC50) was 50 nM.
For `O=C(c1ccc(C(F)(F)F)cc1O)c1[nH]c(Cl)c(Cl)c1-n1c(C(=O)c2ccc(C(F)(F)F)cc2O)cc(Cl)c1SCCCO`, 200 nM corresponded to half-maximal inhibition (IC50).

Tested on in another series: not listed separately
Put plainly: Cytotoxicity against […] infected with JEV-SA14 incubated for 7 days by CellTiter 96 luminescent cell viability assay. The format is toxicity, cell-based. To be noted: time 7 day.
On to `O=C(c1ccc(C(F)(F)F)cc1O)c1[nH]c(Cl)c(Cl)c1-n1c(C(=O)c2ccc(C(F)(F)F)cc2O)cc(Cl)c1SCCO`, for which the CC50 at 168 h was 1450 nM.
In turn, `O=C(c1ccc(C(F)(F)F)cc1O)c1[nH]c(Cl)c(Cl)c1-n1c(C(=O)c2ccc(C(F)(F)F)cc2O)cc(Cl)c1Sc1ccccn1` had a CC50 at 168 h of 230 nM.
The same measure, in the same setting: the figure for `O=C(c1ccc(C(F)(F)F)cc1O)c1[nH]c(Cl)c(Cl)c1-n1c(C(=O)c2ccc(C(F)(F)F)cc2O)cc(Cl)c1SCCCO` is 1420 nM.

Tested on in the next series: not listed separately
Put plainly: Cytotoxicity against […] infected with YFV-17D incubated for 7 days by CellTiter 96 luminescent cell viability assay. It counts as toxicity, cell-based. Particulars: time 7 day.
In turn, `O=C(c1ccc(C(F)(F)F)cc1O)c1[nH]c(Cl)c(Cl)c1-n1c(C(=O)c2ccc(C(F)(F)F)cc2O)cc(Cl)c1SCCO` gave a 50% cytotoxic concentration (CC50) at 168 h of 1450 nM.
Regarding `O=C(c1ccc(C(F)(F)F)cc1O)c1[nH]c(Cl)c(Cl)c1-n1c(C(=O)c2ccc(C(F)(F)F)cc2O)cc(Cl)c1Sc1ccccn1`, it took 230 nM to reach half-maximal cytotoxicity (CC50 at 168 h).
In turn, `O=C(c1ccc(C(F)(F)F)cc1O)c1[nH]c(Cl)c(Cl)c1-n1c(C(=O)c2ccc(C(F)(F)F)cc2O)cc(Cl)c1SCCCO` showed a CC50 at 168 h of 1420 nM.

A further series has as its system Enterovirus A71. In words: Antiviral activity against EV71 infected in human RD cells incubated for 3 days by CellTiter 96 luminescent cell viability assay. The format is functional, organism-based. To be noted: Enterovirus A, 71, RD, 72 h.
`O=C(c1ccc(C(F)(F)F)cc1O)c1[nH]c(Cl)c(Cl)c1-n1c(C(=O)c2ccc(C(F)(F)F)cc2O)cc(Cl)c1SCCO` had an IC50 of 550 nM.

In the next series the test system is Coxsackievirus. Put plainly: Antiviral activity against CA6 infected in human RD cells incubated for 3 days by CellTiter 96 luminescent cell viability assay. Particulars: A6, RD, 72 h. It counts as functional, organism-based.
Consider `O=C(c1ccc(C(F)(F)F)cc1O)c1[nH]c(Cl)c(Cl)c1-n1c(C(=O)c2ccc(C(F)(F)F)cc2O)cc(Cl)c1Sc1ccccn1`, for which the concentration for half-maximal inhibition (IC50) is 190 nM.
For `O=C(c1ccc(C(F)(F)F)cc1O)c1[nH]c(Cl)c(Cl)c1-n1c(C(=O)c2ccc(C(F)(F)F)cc2O)cc(Cl)c1SCCCO`, the 50% inhibitory concentration (IC50) turned out to be 260 nM.

The subject of the next series is Coxsackievirus A16. Put plainly: Antiviral activity against CA16 infected in human RD cells incubated for 3 days by CellTiter 96 luminescent cell viability assay. The format is functional, organism-based. Particulars: Enterovirus A, 72 h.
`O=C(c1ccc(C(F)(F)F)cc1O)c1[nH]c(Cl)c(Cl)c1-n1c(C(=O)c2ccc(C(F)(F)F)cc2O)cc(Cl)c1Sc1ccccn1` registered a concentration for half-maximal inhibition (IC50) of 10 nM.

Tested on in the next series: not listed separately
Put plainly: Cytotoxicity against human RD cells infected with EV71 incubated for 3 days by CellTiter 96 luminescent cell viability assay. It counts as toxicity, cell-based. To be noted: time 3 day.
`O=C(c1ccc(C(F)(F)F)cc1O)c1[nH]c(Cl)c(Cl)c1-n1c(C(=O)c2ccc(C(F)(F)F)cc2O)cc(Cl)c1SCCO` registered a CC50 at 72 h of 1570 nM.

Tested on in another series: not listed separately
Put plainly: Cytotoxicity against human RD cells infected with CA6 incubated for 3 days by CellTiter 96 luminescent cell viability assay. Particulars: time 3 day. The format is toxicity, cell-based.
For `O=C(c1ccc(C(F)(F)F)cc1O)c1[nH]c(Cl)c(Cl)c1-n1c(C(=O)c2ccc(C(F)(F)F)cc2O)cc(Cl)c1Sc1ccccn1`, it took 230 nM to reach half-maximal cytotoxicity (CC50 at 72 h).
Compound `O=C(c1ccc(C(F)(F)F)cc1O)c1[nH]c(Cl)c(Cl)c1-n1c(C(=O)c2ccc(C(F)(F)F)cc2O)cc(Cl)c1SCCCO` yielded a CC50 at 72 h of 1040 nM.

Tested on in a further series: not listed separately
In words: Cytotoxicity against human RD cells infected with CA16 incubated for 3 days by CellTiter 96 luminescent cell viability assay. The format is toxicity, cell-based. Particulars: time 3 day.
Compound `O=C(c1ccc(C(F)(F)F)cc1O)c1[nH]c(Cl)c(Cl)c1-n1c(C(=O)c2ccc(C(F)(F)F)cc2O)cc(Cl)c1Sc1ccccn1` showed a 50% cytotoxic concentration (CC50) at 72 h of 230 nM.

Tested on in the next series: not listed separately
In words: Selectivity index, ratio of CC50 for […] to IC50 for ZIKV-SMGC-1 infected in […]. The format is toxicity, cell-based. To be noted: read-out: Ratio CC50/IC50.
With `O=C(c1ccc(C(F)(F)F)cc1O)c1[nH]c(Cl)c(Cl)c1-n1c(C(=O)c2ccc(C(F)(F)F)cc2O)cc(Cl)c1SCCO`, the selectivity ratio was 7.13.
Turning to `O=C(c1ccc(C(F)(F)F)cc1O)c1[nH]c(Cl)c(Cl)c1-n1c(C(=O)c2ccc(C(F)(F)F)cc2O)cc(Cl)c1SCCCO`, the selectivity ratio worked out at 14.2.

Tested on in the next series: not listed separately
In words: Selectivity index, ratio of CC50 for […] to IC50 for DENV-NGC infected in […]. To be noted: read-out: Ratio CC50/IC50. It counts as toxicity, cell-based.
On to `O=C(c1ccc(C(F)(F)F)cc1O)c1[nH]c(Cl)c(Cl)c1-n1c(C(=O)c2ccc(C(F)(F)F)cc2O)cc(Cl)c1SCCO`, for which the selectivity ratio is 3.34.
In the case of `O=C(c1ccc(C(F)(F)F)cc1O)c1[nH]c(Cl)c(Cl)c1-n1c(C(=O)c2ccc(C(F)(F)F)cc2O)cc(Cl)c1SCCCO`, the selectivity ratio stood at 6.17.

Tested on in another series: not listed separately
In words: Selectivity index, ratio of CC50 for […] to IC50 for JEV-SA14 infected in […]. It counts as toxicity, cell-based. To be noted: read-out: Ratio CC50/IC50.
Regarding `O=C(c1ccc(C(F)(F)F)cc1O)c1[nH]c(Cl)c(Cl)c1-n1c(C(=O)c2ccc(C(F)(F)F)cc2O)cc(Cl)c1SCCO`, the selectivity ratio came to 2.13.
Consider `O=C(c1ccc(C(F)(F)F)cc1O)c1[nH]c(Cl)c(Cl)c1-n1c(C(=O)c2ccc(C(F)(F)F)cc2O)cc(Cl)c1Sc1ccccn1`, for which the selectivity ratio turned out to be 1.1.
`O=C(c1ccc(C(F)(F)F)cc1O)c1[nH]c(Cl)c(Cl)c1-n1c(C(=O)c2ccc(C(F)(F)F)cc2O)cc(Cl)c1SCCCO`: the selectivity ratio was 6.17.

Tested on in the next series: not listed separately
Put plainly: Selectivity index, ratio of CC50 for […] to IC50 for YFV-17D infected in […]. The format is toxicity, cell-based. Particulars: read-out: Ratio CC50/IC50.
In the case of `O=C(c1ccc(C(F)(F)F)cc1O)c1[nH]c(Cl)c(Cl)c1-n1c(C(=O)c2ccc(C(F)(F)F)cc2O)cc(Cl)c1SCCO`, the selectivity ratio came to 2.41.
As to `O=C(c1ccc(C(F)(F)F)cc1O)c1[nH]c(Cl)c(Cl)c1-n1c(C(=O)c2ccc(C(F)(F)F)cc2O)cc(Cl)c1Sc1ccccn1`, the selectivity ratio was found to be 4.6.
Take `O=C(c1ccc(C(F)(F)F)cc1O)c1[nH]c(Cl)c(Cl)c1-n1c(C(=O)c2ccc(C(F)(F)F)cc2O)cc(Cl)c1SCCCO`: the selectivity ratio is 7.1.

Tested on in the next series: not listed separately
In words: Selectivity index, ratio of CC50 for human RD cells to IC50 for EV71 infected in human RD cells. The format is toxicity, cell-based. To be noted: read-out: Ratio CC50/IC50.
For the compound `O=C(c1ccc(C(F)(F)F)cc1O)c1[nH]c(Cl)c(Cl)c1-n1c(C(=O)c2ccc(C(F)(F)F)cc2O)cc(Cl)c1SCCO`, the selectivity ratio came out at 2.85.

Tested on in a further series: not listed separately
Put plainly: Selectivity index, ratio of CC50 for human RD cells to IC50 for CA6 infected in human RD cells. It counts as toxicity, cell-based. To be noted: read-out: Ratio CC50/IC50.
On to `O=C(c1ccc(C(F)(F)F)cc1O)c1[nH]c(Cl)c(Cl)c1-n1c(C(=O)c2ccc(C(F)(F)F)cc2O)cc(Cl)c1Sc1ccccn1`, for which the selectivity ratio stood at 1.2.
As to `O=C(c1ccc(C(F)(F)F)cc1O)c1[nH]c(Cl)c(Cl)c1-n1c(C(=O)c2ccc(C(F)(F)F)cc2O)cc(Cl)c1SCCCO`, the selectivity ratio amounted to 4.

Tested on in a further series: not listed separately
In words: Selectivity index, ratio of CC50 for human RD cells to IC50 for CA16 infected in human RD cells. Particulars: read-out: Ratio CC50/IC50. The format is toxicity, cell-based.
In the case of `O=C(c1ccc(C(F)(F)F)cc1O)c1[nH]c(Cl)c(Cl)c1-n1c(C(=O)c2ccc(C(F)(F)F)cc2O)cc(Cl)c1Sc1ccccn1`, the selectivity ratio was 22.8.
